Where “and” joins values, the source holds several entries; their conditions need not be identical. Equal values may be shown once.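 Step 1: Grow cells in 96-well plates. Step 2: Expose to compound for 48 hours at 5 concentrations. Step 3: Interpolate endpoints linearly; if unreached, use highest concentration. GI50 marks 50% less growth. TGI: total growth inhibition.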
Experiments:
Assay in all cases: NCI anticancer screen, dose series, 48 h
[1] = system: T-47D breast
[2] = system: ACHN renal
[3] = system: 786-0 renal
[4] = system: CCRF-CEM leukemia
[5] = system: CAKI-1 renal
[6] = system: SK-MEL-28 melanoma
[7] = system: U251 CNS
[8] = system: SNB-75 CNS
[9] = system: NCI-H23 lung
[10] = system: PC-3 prostate

Row | SMILES | GI50 [1] [µM] | TGI [1] [µM] | GI50 [2] [µM] | TGI [2] [µM] | GI50 [3] [µM] | TGI [3] [µM] | GI50 [4] | TGI [4] | GI50 [5] [µM] | TGI [5] [µM] | GI50 [6] [µM] | TGI [6] [µM] | GI50 [7] [µM] | TGI [7] [µM] | GI50 [8] [µM] | TGI [8] [µM] | GI50 [9] [µM] | TGI [9] [µM] | GI50 [10] [µM] | TGI [10] [µM]
1 | Oc1ccc2c(=S)cc(-c3ccc(Br)cc3)oc2c1O | 1.27 | 5.15 | 2.35 | 11.8 | 2.89 | 11.1 | 2.53 µM | 8.03 µM | 2.65 | 15.5 | 2.94 | 28.7 | 2.44 | 8.93 | 4.56 | > 100 | 1.52 | 6.38 | 2.92 | 17.1
2 | CNC(=O)ON(C(C)=O)C(=O)NC | – | 33.5 | > 60.8 | 47.7 | > 93.8 | 34.4 | 20.1 µM and 6.17 µM | > 65.9 µM and 43 µM | – | 146 | – | 159 | 93 | 222 | – | 182 | – | 156 | – | 60.7
3 | CC12OC(CC(O)C1O)n1c3ccccc3c3c4c(c5c6ccccc6n2c5c31)C(=O)N(CCN1CCOCC1)C4=O (centres undefined) | 0.651 | 3.84 | 0.526 | 1.69 | 1.29 | 5.68 | 1.16 µM | 8.95 µM | 1.02 | 5.43 | 2.16 | 8.57 | 0.604 | 5.65 | 0.765 | 5.37 | 1.05 | 4.87 | 1.19 | 7.3
4 | CC1(C)C(N2CCOCC2)CS1(=O)=O (centres undefined) | – | > 10 | – | > 10 | – | > 10 | – | > 10 µM | – | > 10 | – | > 10 | – | > 10 | – | > 10 | – | > 10 | – | > 10
5 | COC(=O)[C@]12CC[C@@H](C)[C@H](C)[C@@H]1C1=CC[C@@H]3[C@@]4(C)C(C=O)=C[C@@](C)(CO)[C@@H]4[C@H](O)C[C@@]3(C)[C@]1(C)CC2 | 2.11 | 13.2 | 3.47 | 12.2 | 2.97 | 11.1 | 3.73 µM | 13.7 µM | 3.71 | 16.8 | 3.33 | 12.4 | 3.83 | 13.8 | 2.72 | 19.3 | 2.97 | 12.2 | 4.14 | 18.5
6 | COc1cc(C(=O)/C=C/c2cc(-c3ccc4c(c3)OCO4)n[nH]2)cc(OC)c1OC | 1.51 | 4.63 | 2.2 | 4.95 | 1.84 | 3.46 | 2 µM | 5.74 µM | 1.99 | 5.65 | 1.92 | 4.18 | 1.21 | 2.49 | 2.4 | 7.27 | 2.9 | 10.3 | 1.51 | 4.02
7 | C#C[C@@]1(O)[C@@H](CO)O[C@@H](n2cc(Br)c3c(Cl)ccnc32)[C@@H]1O | 0.394 | > 19.9 | 1.74 | > 100 | 1.68 | > 100 | 0.386 µM | > 100 µM | 0.602 | > 100 | > 100 | > 100 | 40 | > 100 | 0.657 | > 39.2 | 1.86 | > 100 | 0.217 | 0.874
8 | CCN(CC)CCNC(=O)c1cccc2c1-c1ccccc1C2=O | > 100 | > 100 | > 100 | > 100 | > 100 | > 100 | > 100 µM | > 100 µM | > 100 | > 100 | > 100 | > 100 | > 100 | > 100 | > 100 | > 100 | > 100 | > 100 | > 100 | > 100
9 | CN(C)c1ccc(/C=C(\C#N)c2cc3ccccc3[nH]2)cc1 | 0.585 | > 100 | 2.42 | > 100 | 2.52 | > 100 | 0.813 µM | 14.3 µM | 1.6 | > 100 | 2.63 | > 100 | 0.913 | 18.6 | 1.31 | 4.59 | 3.21 | > 100 | 1.15 | 31.6
10 | CC(C)(C)[Si](C)(C)OCC1OC(n2cnc3c(=O)[nH]cnc32)CC1O (centres undefined) | – | > 100 | – | > 100 | – | > 100 | – | > 100 µM | – | > 100 | – | > 100 | – | > 100 | – | > 100 | – | > 100 | – | > 100
11 | CN1CCN(CCCNC(=O)c2c3c(n4ccccc24)C(=O)c2ncccc2C3=O)CC1 | 1.88 | 5.28 | 0.866 | 5.49 | 1.63 | 22.3 | 2.16 µM | > 27.8 µM | 6.76 | 46.3 | 4.57 | 19.1 | 1.48 | 6.54 | 3.92 | 16.3 | 0.674 | 3.08 | 1.37 | 9
12 | O=C(/C=C/c1ccccc1)c1cccc2ccccc12 | 2.89 | 21.2 | 3.66 | 14.3 | 2.82 | 7.25 | 2.71 µM | 17.8 µM | 2.11 | 6.62 | 5.02 | 16.6 | 2.14 | 6.02 | 2.19 | 7.27 | 3.19 | 11.9 | 2.81 | 7.78
13 | Cc1ccc(/C=N/NC(=O)c2ccccc2Oc2ccccc2)o1 | 34.9 | > 100 | 28.5 | > 100 | > 100 | > 100 | 30.9 µM | > 100 µM | 34.1 | > 100 | 36.6 | > 100 | 52.2 | > 100 | 12.8 | > 100 | 39.2 | > 100 | 30.3 | > 100

Reference: PubChem BioAssay (NCI)
